Assay results as given in ChEMBL document CHEMBL1909046, “DrugMatrix in vitro pharmacology data”.
pIC50, pKi: −log10 of the molar value.

Tests used:
[1] = target: T1, Muscarinic acetylcholine receptor M5 (Homo sapiens, UniProt P08912); format: cell membranes, CHO-K1, Membrane; settings: cho-k1; further: in other assays of this panel Not Active means under 50% inhibition at 10 µM
T1 sequence (P08912 whole entry): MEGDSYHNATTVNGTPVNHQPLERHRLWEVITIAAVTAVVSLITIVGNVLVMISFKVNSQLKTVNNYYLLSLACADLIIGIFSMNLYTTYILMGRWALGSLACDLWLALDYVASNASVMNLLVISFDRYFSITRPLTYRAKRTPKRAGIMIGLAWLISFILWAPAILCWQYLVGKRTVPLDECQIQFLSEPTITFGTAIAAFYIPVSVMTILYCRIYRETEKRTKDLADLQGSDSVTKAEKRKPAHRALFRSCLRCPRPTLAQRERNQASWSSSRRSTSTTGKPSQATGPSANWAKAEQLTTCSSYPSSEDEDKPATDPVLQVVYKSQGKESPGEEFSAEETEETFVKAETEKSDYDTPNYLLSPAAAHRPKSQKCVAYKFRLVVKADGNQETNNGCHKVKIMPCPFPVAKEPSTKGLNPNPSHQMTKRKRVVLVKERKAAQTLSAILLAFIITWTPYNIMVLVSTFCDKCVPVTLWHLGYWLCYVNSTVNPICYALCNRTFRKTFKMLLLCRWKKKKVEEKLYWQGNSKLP

[2] = target: T2, 5-hydroxytryptamine receptor 2C (Homo sapiens, UniProt P28335); assay: DRUGMATRIX: Serotonin (5-Hydroxytryptamine) 5-HT2C radioligand binding (ligand: [3H] Mesulergine); format: cell membranes, CHO-K1, Membrane; settings: Not Active = under 50% inhibition at 10 µM; for IC50: cho-k1
T2 sequence (P28335 whole entry): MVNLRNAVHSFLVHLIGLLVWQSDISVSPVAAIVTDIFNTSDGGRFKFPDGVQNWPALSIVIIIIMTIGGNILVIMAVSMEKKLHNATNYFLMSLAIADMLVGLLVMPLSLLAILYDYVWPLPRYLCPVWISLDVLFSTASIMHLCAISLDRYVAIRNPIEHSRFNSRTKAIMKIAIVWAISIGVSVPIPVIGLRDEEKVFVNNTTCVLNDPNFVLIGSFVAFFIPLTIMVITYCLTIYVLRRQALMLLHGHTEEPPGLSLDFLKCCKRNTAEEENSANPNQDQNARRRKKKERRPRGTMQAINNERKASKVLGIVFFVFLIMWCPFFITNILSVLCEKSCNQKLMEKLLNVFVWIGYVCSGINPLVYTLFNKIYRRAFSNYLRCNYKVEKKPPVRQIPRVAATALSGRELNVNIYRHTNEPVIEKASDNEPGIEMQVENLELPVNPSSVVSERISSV

Substance-K receptor = target: T3, Substance-K receptor (Homo sapiens, UniProt P21452); format: cell membranes, CHO, Membrane; settings: cho; further: in other assays of this panel Not Active means under 50% inhibition at 10 µM
T3 sequence (P21452 whole entry): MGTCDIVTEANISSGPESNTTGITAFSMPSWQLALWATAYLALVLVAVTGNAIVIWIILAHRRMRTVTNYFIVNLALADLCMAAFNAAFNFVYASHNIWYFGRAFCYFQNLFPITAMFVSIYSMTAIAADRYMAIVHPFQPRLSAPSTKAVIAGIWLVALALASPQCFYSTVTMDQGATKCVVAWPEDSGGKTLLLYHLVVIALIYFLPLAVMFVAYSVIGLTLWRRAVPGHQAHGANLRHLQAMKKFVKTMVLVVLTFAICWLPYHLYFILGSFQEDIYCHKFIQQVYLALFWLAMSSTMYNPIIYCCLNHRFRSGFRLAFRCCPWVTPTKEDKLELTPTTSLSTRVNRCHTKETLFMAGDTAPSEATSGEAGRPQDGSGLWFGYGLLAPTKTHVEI

[3] = DRUGMATRIX: Nicotinic Acetylcholine radioligand binding (ligand: [125I] Epibatidine); format: cell membranes, Membrane; settings: imr-32; Not Active = under 50% inhibition at 10 µM
[4] = target: Aldo-keto reductase family 1 member B1 (Rattus norvegicus, UniProt P07943); format: tissue-based, Lens of camera-type eye;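 further: inhibition of aldose reductase enzyme activity, measured with DL-glyceraldehyde as the substrate; in other assays of this panel Not Active means under 50% inhibition at 10 µM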
[5] = DRUGMATRIX: GABAA, Chloride Channel, TBOB radioligand binding (ligand: [3H] TBOB); format: cell membranes, Rattus norvegicus, Wistar, Cerebral cortex, Membrane; settings: Not Active = under 50% inhibition at 10 µM
[6] = DRUGMATRIX: Imidazoline I2, Central radioligand binding (ligand: [3H] Idazoxan); format: cell membranes, Rattus norvegicus, Wistar, Cerebral cortex, Membrane; settings: Not Active = under 50% inhibition at 10 µM
[7] = target: T4, Alpha-1A adrenergic receptor (Rattus norvegicus, UniProt P43140); assay: DRUGMATRIX: Alpha-1A adrenergic receptor radioligand binding (ligand: prazosin); format: cell membranes, Wistar, Submaxillary gland, Membrane; settings: Not Active = under 50% inhibition at 10 µM
T4 sequence (P43140 whole entry): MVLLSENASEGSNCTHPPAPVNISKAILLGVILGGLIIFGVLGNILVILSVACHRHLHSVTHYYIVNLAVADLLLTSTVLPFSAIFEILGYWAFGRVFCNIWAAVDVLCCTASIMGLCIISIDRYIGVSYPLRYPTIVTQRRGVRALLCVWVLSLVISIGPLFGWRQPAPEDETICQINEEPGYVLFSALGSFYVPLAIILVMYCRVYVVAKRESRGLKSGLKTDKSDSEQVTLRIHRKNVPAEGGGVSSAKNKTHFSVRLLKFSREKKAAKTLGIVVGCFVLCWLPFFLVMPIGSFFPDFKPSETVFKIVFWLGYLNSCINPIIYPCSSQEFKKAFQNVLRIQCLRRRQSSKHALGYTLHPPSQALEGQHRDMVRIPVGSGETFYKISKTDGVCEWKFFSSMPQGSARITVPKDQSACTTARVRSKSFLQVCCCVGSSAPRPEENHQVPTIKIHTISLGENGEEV

Melanocortin receptor 4 = Melanocortin receptor 4 (Homo sapiens, UniProt P32245); format: cell membranes, Membrane; settings: hek293; further: in other assays of this panel Not Active means under 50% inhibition at 10 µM
Adenosine receptor A1 = target: T5, Adenosine receptor A1 (Homo sapiens, UniProt P30542); format: cell membranes, CHO, Membrane; settings: for IC50: cho
T5 sequence (P30542 whole entry): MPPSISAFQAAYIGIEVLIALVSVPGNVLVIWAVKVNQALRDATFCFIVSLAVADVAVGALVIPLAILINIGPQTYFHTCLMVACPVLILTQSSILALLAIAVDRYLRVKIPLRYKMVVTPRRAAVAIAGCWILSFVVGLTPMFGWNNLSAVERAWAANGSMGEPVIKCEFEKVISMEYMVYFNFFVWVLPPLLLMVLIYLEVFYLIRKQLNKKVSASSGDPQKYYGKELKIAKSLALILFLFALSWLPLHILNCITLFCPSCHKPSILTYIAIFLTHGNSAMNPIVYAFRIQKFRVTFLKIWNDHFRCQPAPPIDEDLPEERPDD

[8] = DRUGMATRIX: Platelet-Derived Growth Factor (PDGF) radioligand binding (ligand: [125I] PDGF); format: cell-based; settings: nih3t3; Not Active = under 50% inhibition at 10 µM
[9] = DRUGMATRIX: Glutamate, NMDA, Agonism radioligand binding (ligand: [3H] CGP-39653); format: cell membranes, Rattus norvegicus, Wistar, Cerebral cortex, Membrane; settings: Not Active = under 50% inhibition at 10 µM

Sequence of Melanocortin receptor 4 (P32245 whole entry): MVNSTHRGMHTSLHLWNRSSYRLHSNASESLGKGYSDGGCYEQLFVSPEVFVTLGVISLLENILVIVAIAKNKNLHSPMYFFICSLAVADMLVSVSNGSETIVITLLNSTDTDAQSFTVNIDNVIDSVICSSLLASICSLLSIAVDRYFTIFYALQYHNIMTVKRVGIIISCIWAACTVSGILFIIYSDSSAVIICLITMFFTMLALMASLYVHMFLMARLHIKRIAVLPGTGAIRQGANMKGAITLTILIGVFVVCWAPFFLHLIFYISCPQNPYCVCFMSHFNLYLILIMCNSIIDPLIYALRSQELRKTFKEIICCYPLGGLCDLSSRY

| Structure (SMILES) | IC50 [1] | IC50 [2] | IC50 (Substance-K receptor) | IC50 [3] | Ki [3] | IC50 [4] | IC50 [5] | Ki [5] | IC50 [6] | Ki [6] | IC50 [7] | IC50 (Melanocortin receptor 4) | IC50 (Adenosine receptor A1) | IC50 [8] | Ki [8] | IC50 [9] | Ki [9] | other results |
| --- | --- | --- | --- | --- | --- | --- | --- | --- | --- | --- | --- | --- | --- | --- | --- | --- | --- | --- |
| CC[C@H]1OC(=O)[C@H](C)[C@@H](O[C@H]2C[C@@](C)(OC)[C@@H](O)[C@H](C)O2)[C@H](C)[C@@H](O[C@@H]2O[C@H](C)C[C@H](N(C)C)[C@H]2O)[C@](C)(O)C[C@@H](C)/C(=N\OCOCCOC)[C@H](C)[C@@H](O)[C@]1(C)O [ROXITHROMYCIN] | Not Active | Not Active | Not Active | Not Active | Not Active | Not Active | Not Active | Not Active | Not Active | Not Active | Not Active | Not Active | Not Active | Not Active | Not Active | Not Active | Not Active |  |
| COC(=O)c1ccc(O)cc1 [METHYLPARABEN] | Not Active | Not Active | Not Active | Not Active | Not Active | Not Active | Not Active | Not Active | Not Active | Not Active | Not Active | Not Active | Not Active | Not Active | Not Active | Not Active | Not Active |  |
| NC(CO)(CO)CO [TROMETHAMINE] | Not Active | Not Active | Not Active | Not Active | Not Active | Not Active | Not Active | Not Active | Not Active | Not Active | Not Active | Not Active | Not Active | Not Active | Not Active | Not Active | Not Active |  |
| CCOC(=O)[C@H](CCc1ccccc1)N[C@@H](C)C(=O)N1[C@H](C(=O)O)C[C@@H]2CCC[C@@H]21 | Not Active | Not Active | Not Active | Not Active | Not Active | Not Active | Not Active | Not Active | Not Active | Not Active | Not Active | Not Active | Not Active | Not Active | Not Active | Not Active | Not Active |  |
| COc1cc(C(=O)NC2CCCNC2)cc(OC)c1OC (stereo not drawn) [TROXIPIDE] | Not Active | Not Active | Not Active | Not Active | Not Active | Not Active | Not Active | Not Active | Not Active | Not Active | Not Active | Not Active | Not Active | Not Active | Not Active | Not Active | Not Active |  |
| CCC[C@@H]1C[C@@H](C(=O)N[C@@H]([C@H]2O[C@H](SC)[C@H](O)[C@@H](O)[C@H]2O)[C@@H](C)O)N(C)C1 [LINCOMYCIN] | Not Active | Not Active | Not Active | Not Active | Not Active | Not Active | Not Active | Not Active | Not Active | Not Active | Not Active | Not Active | Not Active | Not Active | Not Active | Not Active | Not Active |  |
| NNC(=O)c1ccncc1 [ISONIAZID] | Not Active | Not Active | Not Active | Not Active | Not Active | Not Active | Not Active | Not Active | Not Active | Not Active | Not Active | Not Active | Not Active | Not Active | Not Active | Not Active | Not Active |  |
| COC(=O)C1=C(C)NC(C)=C(C(=O)OC)C1c1ccccc1[N+](=O)[O-] [NIFEDIPINE] | Not Active |  | Not Active | Not Active | Not Active | Not Active | Not Active | Not Active | Not Active | Not Active | Not Active | Not Active |  | Not Active | Not Active | Not Active | Not Active | pIC50 ([2]; read-out: IC50): 4.74; pKi ([2]; read-out: Ki): 5.02; pIC50 (Adenosine receptor A1; read-out: IC50): 5.11; pKi (Adenosine receptor A1; read-out: Ki): 5.35 |
